Data on 4 molecules can be found in patent publication US20230364057A1, “BACTERIAL DNA GYRASE INHIBITORS AND METHODS OF USE THEREOF” (THE FLORIDA INTERNATIONAL UNIVERSITY BOARD OF TRUSTEES, priority 2022, published 2023).

In data set [1] the test system is E. coli (ATCC 25922). The data set can be described thus: Minimum inhibitory concentration, broth microdilution. As to conditions: for MIC: Escherichia coli.
Description: (§2) Antibacterial minimum inhibitory concentrations (MICs) were obtained from three independent experiments using broth microdilution methods in 96-well plates according to Clinical and Laboratory Standards Institute guidelines. Cells were culture from singles colonies in MHIIB medium for 24 h at 37° C. in agitation (200 RPM). The cultures were then diluted using the same media to reach an OD600 of 0.1. Then, 50 µL of the diluted cultures were added to the plates holding 50 µL of serially diluted compounds in MHIIB. The plates were incubated at 37° C. for 20 h. The starting inoculum was fixated to 10^5 colony-forming units per ml.
In data set [2] the target is T1, E. coli DNA gyrase (Escherichia coli (strain K12), UniProt P0AES4+P0AES6). Nature of the data set: SDFQ-based DNA gyrase inhibition assay. Format: biochemical. The protocol: 100 ng of DNA gyrase was used to supercoil the rx pAB1_FL905 in the presence of different concentrations of a gyrase inhibitor. […] The IC50 values were estimated by nonlinear fitting of the following equation: […]
where F is the fluorescence intensity at the x concentration of an min inhibitor. Fmax and Fmin are the maximum and minimum fluorescence of the DNA sample, respectively. P is a slope parameter.

In data set [3] the target is human DNA topoisomerase 2α (Homo sapiens (Human), UniProt P11388). The data set can be described thus: Human DNA topoisomerase 2α-mediated DNA cleavage assay. As to conditions: pBR322. Format: biochemical.
Sequence of human DNA topoisomerase 2α (P11388 whole entry): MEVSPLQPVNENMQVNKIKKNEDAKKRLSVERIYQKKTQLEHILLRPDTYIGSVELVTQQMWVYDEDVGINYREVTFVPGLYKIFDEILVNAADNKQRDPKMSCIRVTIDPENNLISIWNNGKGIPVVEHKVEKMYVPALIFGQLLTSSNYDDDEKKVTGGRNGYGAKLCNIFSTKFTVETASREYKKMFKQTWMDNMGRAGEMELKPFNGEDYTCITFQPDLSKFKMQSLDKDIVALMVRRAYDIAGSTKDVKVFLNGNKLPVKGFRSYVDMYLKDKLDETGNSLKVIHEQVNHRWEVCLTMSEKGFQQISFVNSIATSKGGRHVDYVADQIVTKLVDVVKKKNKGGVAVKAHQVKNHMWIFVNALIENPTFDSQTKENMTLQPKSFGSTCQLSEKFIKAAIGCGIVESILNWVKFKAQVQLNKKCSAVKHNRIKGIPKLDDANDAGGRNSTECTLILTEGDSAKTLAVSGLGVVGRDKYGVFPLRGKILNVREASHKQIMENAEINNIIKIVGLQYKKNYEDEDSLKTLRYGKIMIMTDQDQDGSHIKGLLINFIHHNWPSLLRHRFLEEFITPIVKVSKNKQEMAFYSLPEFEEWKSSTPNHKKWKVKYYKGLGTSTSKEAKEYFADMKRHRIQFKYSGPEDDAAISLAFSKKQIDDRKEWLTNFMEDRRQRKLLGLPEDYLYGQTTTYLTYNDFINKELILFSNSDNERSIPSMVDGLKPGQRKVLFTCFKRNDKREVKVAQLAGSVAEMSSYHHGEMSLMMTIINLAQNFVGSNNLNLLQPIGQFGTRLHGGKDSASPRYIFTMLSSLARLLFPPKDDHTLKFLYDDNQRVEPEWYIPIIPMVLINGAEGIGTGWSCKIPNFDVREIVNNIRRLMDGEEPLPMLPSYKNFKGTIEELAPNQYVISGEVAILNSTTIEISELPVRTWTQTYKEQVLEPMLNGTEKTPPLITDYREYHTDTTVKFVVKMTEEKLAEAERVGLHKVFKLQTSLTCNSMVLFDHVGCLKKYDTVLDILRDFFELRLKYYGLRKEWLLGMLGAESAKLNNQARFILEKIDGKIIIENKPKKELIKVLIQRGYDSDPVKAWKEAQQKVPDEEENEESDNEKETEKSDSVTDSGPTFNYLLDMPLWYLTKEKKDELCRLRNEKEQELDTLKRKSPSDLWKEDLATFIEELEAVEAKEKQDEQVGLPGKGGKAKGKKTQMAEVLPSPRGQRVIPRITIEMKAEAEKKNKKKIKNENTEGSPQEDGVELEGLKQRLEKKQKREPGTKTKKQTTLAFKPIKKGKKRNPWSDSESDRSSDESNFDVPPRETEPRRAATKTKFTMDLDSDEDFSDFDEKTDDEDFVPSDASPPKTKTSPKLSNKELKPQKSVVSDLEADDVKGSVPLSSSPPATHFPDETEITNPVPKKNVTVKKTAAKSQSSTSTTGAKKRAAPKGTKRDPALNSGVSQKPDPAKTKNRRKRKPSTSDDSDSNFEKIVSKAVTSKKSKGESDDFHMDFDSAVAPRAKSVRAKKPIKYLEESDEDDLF
Data set [4] relates to B. subtilis (ATCC 6633). The data set can be described thus: Minimum inhibitory concentration, broth microdilution. The note with it: for MIC: Bacillus subtilis.
The target in data set [5] is T1, E. coli DNA gyrase. Nature of the data set: biochemical. Format: biochemical.
Data set [6] deals with S. aureus (ATCC 14775). Nature of the data set: Minimum inhibitory concentration, broth microdilution. As to conditions: for MIC: Staphylococcus aureus.
Data set [7] addresses human DNA topoisomerase IIα (Homo sapiens (Human), UniProt P11388). The data set can be described thus: Agarose gel-based inhibition assay against human DNA topoisomerase IIα. Format: biochemical.
The target in data set [8] is T2, E. coli DNA topoisomerase IV (Escherichia coli (strain K12), UniProt P0AFI2+P20083). Nature of the data set: E. coli DNA topoisomerase IV relaxation assay (gel-based). Format: biochemical. How it is done: (§1) Relaxation assays by E. coli DNA topoisomerase IV and the ATPase assays were performed. […] Lane 1 is supercoiled plasmid pAB1. […] The supercoiled, fluorescently-labeled plasmid pAB1_FL905 was used.
T2 sequence (P0AFI2 whole entry, looked up): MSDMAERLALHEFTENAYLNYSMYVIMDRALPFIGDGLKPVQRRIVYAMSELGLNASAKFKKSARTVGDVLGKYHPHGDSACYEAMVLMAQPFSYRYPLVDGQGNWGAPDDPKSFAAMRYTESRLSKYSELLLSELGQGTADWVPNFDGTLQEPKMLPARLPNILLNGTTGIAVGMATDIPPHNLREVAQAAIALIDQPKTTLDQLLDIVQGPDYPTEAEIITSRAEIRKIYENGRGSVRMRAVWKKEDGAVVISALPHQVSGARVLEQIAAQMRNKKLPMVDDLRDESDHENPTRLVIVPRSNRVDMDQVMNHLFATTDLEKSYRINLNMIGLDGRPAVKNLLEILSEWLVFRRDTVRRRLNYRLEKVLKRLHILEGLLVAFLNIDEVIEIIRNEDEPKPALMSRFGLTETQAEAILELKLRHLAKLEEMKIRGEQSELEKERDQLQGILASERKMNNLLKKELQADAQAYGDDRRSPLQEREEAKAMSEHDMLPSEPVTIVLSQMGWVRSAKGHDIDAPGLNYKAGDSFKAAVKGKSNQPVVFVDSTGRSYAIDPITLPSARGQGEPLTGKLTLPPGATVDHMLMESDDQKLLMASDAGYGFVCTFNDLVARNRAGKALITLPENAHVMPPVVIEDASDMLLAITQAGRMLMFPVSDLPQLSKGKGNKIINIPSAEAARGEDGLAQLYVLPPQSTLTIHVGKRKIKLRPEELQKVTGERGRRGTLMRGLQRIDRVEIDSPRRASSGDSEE
T2 sequence (P20083 whole entry, looked up): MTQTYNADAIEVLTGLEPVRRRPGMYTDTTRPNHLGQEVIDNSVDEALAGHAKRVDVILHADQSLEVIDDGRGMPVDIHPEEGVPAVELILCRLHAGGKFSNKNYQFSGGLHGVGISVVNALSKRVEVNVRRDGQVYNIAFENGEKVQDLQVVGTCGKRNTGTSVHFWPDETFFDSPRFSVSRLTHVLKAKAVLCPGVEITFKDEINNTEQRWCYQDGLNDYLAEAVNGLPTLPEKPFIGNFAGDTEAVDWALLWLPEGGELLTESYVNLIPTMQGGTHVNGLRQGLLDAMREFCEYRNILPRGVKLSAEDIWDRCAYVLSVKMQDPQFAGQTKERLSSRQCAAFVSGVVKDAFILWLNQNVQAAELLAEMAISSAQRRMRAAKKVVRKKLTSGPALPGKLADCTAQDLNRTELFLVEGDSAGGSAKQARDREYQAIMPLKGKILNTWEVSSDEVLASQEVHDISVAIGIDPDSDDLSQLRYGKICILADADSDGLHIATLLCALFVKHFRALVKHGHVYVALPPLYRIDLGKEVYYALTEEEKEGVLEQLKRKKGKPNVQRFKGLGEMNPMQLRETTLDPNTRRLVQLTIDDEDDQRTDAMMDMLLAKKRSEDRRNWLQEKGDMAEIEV

For data set [9], the target named is T1, E. coli DNA gyrase. The data set can be described thus: DNA gyrase mediated DNA cleavage assay. Format: biochemical. As to conditions: pBR322. In outline: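 Supercoiled pBR322 (250 ng) incubated with 50 nM E. coli gyrase, 1.75 mM ATP and 200 µM compound in Tris-HCl/KCl/MgCl2/DTT/BSA/glycerol buffer, 37° C, 15 min. Complexes trapped with SDS and proteinase K (37° C, 1 h); cleavage products resolved on ethidium-stained agarose gel.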

Data set [10] addresses T1, E. coli DNA gyrase. The data set can be described thus: Agarose gel-based DNA gyrase inhibition assay. Format: biochemical. As to conditions: for IC50: gel-based, read-out: IC50 against E. coli DNA gyrase. The protocol:
100 ng of DNA gyrase was used to supercoil the rx pAB1 in the presence of different concentrations of a gyrase inhibitor. […] Samples were analyzed by electrophoresis in 1% w/v agarose gels followed by ethidium bromide staining and photographed under UV light.

The test system of data set [11] is MRSA. The data set can be described thus: Minimum inhibitory concentration, broth microdilution. The note with it: for MIC: Staphylococcus aureus.
Data set [12] can be described thus: in vitro. As to conditions: mouse.
The test system of data set [13] is NCI panel of 60 cancer cell lines. As to conditions: up to 1 mM; results of NCI DTP; cited from earlier work.
For data set [14], the target named is Mtb gyrase (Mycobacterium tuberculosis (strain ATCC 25618 / H37Rv), UniProt P9WG45+P9WG47). Nature of the data set: Mtb gyrase mediated DNA cleavage assay. Format: biochemical. As to conditions: pBR322, 50-100 µM. The protocol: The IC50 against E. coli (A) and Mtb (C) gyrase were determined using the gel-based gyrase inhibition assays. The gyrase mediated DNA cleavage assays (B and D) were performed using pBR322. (A) 229 inhibits E. coli gyrase. Lane 1, rx pAB1. […] Lane 1, rx pAB1. […] 100 µM of CPDs were used. Symbols rx, nk, In, and sc represent relaxed, nicked, linear, and supercoiled DNA, respectively.

The test system of data set [15] is Mtb. The data set can be described thus: Mtb whole cell assay (% inhibition, MIC). Format: cell-based, Mycobacterium tuberculosis. As to conditions: Mycobacterium tuberculosis.
A short description of data set [16]: in vitro. The note with it: human.
The test system of data set [17] is M. abscessus. The data set can be described thus: MIC against M. abscessus. Format: cell-based, Mycobacterium abscessus. The note with it: Mycobacteroides abscessus.
Data set [18] deals with CDF1 mice. As to conditions: 800 mg/kg, 5 days, results of NCI DTP; cited from earlier work.
Data set [19] has as its target Mtb DNA gyrase (Mycobacterium tuberculosis (strain ATCC 25618 / H37Rv), UniProt P9WG45+P9WG47). The data set can be described thus: Mtb DNA gyrase inhibition assay (gel-based). Format: biochemical. In outline: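 Supercoiling by 100 ng Mtb gyrase of 400 ng relaxed pAB1 in buffer with 1.75 mM ATP, pH 7.5, across inhibitor concentrations. Reactions ran 15 min at 37° C, stopped with SDS/EDTA. Products resolved on 1% agarose, ethidium bromide-stained; IC50 determined from gels.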

Data set [20] has as its target E. coli DNA topoisomerase I (Escherichia coli (strain K12), UniProt P06612). The data set can be described thus: E. coli DNA topoisomerase I inhibition. Format: biochemical. The note with it: gallates at 100 µM.
In data set [21] the target is T2, E. coli DNA topoisomerase IV. Nature of the data set: ATP hydrolysis activity of E. coli DNA topoisomerase IV. The note with it: 100 µM. Format: biochemical. How it is done: as §1
Data set [22] has as its system E. coli imp. The data set can be described thus: microbe, parasite or virus in culture. As to conditions: Escherichia coli, read-out: MIC E. coli imp BAS3023.
Description: as §2
Data set [23] deals with E. coli topoisomerase IV (Escherichia coli (strain K12), UniProt P0AFI2+P20083). Nature of the data set: E. coli topoisomerase IV decatenation. Format: biochemical. The note with it: read-out: IC50 against E. coli topoisomerase IV.
Sequence of E. coli topoisomerase IV (P0AFI2 whole entry, looked up): as the sequence (P0AFI2 whole entry, looked up) above
Sequence of E. coli topoisomerase IV (P20083 whole entry, looked up): as the sequence (P20083 whole entry, looked up) above
The target of data set [24] is T2, E. coli DNA topoisomerase IV. The data set can be described thus: SDFQ-based DNA relaxation assay with E. coli DNA topoisomerase IV. Format: biochemical. The protocol:
as §1

For data set [25], the target named is T1, E. coli DNA gyrase. Nature of the data set: E. coli DNA gyrase ATPase assay. Format: biochemical. In outline:
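Coupled PK/LDH ATPase assay with 50 nM gyrase and 200 ng relaxed pAB1 in Tris pH 7.5 buffer with 1 mM MgCl2. Mixtures held on ice 5 min before starting with 2 mM ATP; NADH absorbance at 340 nm followed up to 30 min at 37 °C.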

Data set [26] concerns the target human DNA topoisomerase I (Homo sapiens (Human), UniProt P11387). The data set can be described thus: Human DNA topoisomerase I inhibition. Format: biochemical. As to conditions: gallates at 100 µM.
For data set [27], the system named is E. coli imp.
Description: as §2

≈ marks a conversion by molar mass, not a printed value. Where “and” joins values, the source holds several entries; their conditions need not be identical. Equal values may be shown once. Entries after “also recorded” stand apart in the source; their conditions may differ. Read-outs that look alike come from different tables or passages of the source. A value given as a limit tells only on which side of the number the result lay.

Sequence of human DNA topoisomerase IIα (P11388 whole entry): as the sequence (P11388 whole entry) above
Sequence of human DNA topoisomerase I (P11387 whole entry): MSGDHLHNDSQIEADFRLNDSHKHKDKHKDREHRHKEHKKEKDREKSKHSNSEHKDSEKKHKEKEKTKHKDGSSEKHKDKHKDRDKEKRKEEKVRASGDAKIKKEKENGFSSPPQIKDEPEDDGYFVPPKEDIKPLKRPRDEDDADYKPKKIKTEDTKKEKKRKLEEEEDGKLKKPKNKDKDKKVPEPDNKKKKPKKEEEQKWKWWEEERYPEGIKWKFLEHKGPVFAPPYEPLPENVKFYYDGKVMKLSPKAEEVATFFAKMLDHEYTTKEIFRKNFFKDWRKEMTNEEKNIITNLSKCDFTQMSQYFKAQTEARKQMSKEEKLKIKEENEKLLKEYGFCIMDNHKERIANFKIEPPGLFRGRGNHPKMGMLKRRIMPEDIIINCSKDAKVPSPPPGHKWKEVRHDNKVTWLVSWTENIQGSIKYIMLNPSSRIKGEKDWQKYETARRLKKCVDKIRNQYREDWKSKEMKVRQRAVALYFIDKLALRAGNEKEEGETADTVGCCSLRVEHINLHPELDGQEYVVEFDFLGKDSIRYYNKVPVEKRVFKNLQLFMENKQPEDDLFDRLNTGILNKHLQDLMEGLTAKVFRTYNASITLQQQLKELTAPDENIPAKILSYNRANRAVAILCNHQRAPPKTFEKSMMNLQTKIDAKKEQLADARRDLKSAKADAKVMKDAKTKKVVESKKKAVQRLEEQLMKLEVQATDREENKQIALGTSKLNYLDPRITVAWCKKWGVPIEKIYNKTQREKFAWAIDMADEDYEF
Sequence of E. coli DNA topoisomerase I (P06612 whole entry, looked up): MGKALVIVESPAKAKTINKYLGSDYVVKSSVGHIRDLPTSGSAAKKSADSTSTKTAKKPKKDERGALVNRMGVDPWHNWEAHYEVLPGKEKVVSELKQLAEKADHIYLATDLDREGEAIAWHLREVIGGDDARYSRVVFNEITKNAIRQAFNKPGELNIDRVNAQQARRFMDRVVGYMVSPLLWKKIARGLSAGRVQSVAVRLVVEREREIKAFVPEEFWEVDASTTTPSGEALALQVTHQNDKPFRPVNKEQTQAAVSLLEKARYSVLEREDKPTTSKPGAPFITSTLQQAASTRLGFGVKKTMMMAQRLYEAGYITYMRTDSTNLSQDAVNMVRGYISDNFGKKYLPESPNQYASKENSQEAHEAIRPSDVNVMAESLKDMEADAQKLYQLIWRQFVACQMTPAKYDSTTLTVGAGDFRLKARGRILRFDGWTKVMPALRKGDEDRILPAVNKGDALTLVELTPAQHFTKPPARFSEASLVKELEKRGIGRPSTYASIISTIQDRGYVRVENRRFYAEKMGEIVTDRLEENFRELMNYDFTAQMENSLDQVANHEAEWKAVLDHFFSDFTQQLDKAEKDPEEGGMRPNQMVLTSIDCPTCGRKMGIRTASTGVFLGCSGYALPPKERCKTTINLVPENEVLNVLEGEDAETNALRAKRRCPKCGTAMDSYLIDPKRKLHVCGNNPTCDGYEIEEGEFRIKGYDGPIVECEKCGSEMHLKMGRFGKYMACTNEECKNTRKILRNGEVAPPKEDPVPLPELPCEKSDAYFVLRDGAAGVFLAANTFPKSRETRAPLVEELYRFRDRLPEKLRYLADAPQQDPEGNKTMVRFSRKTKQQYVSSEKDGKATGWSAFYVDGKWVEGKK

For `N=C(N)Nc1nc(-c2ccccc2)c2cc(Cl)ccc2n1` [Compound 154, N-(6-chloro-4-phenylquinazolin-2-yl)guanidine], the MIC in data set [1] (ATCC25922, read-out: Minimum Inhibitory Concentration E. coli, Tables 3a-3c) was found to be 50 µM (≈ 14.9 µg/mL); in data set [4] (ATCC6633, read-out: Minimum Inhibitory Concentration B.subtilis), 25 µM (≈ 7.44 µg/mL); in data set [6] (ATCC14775, read-out: Minimum Inhibitory Concentration S.aureus) it was 25 µM (≈ 7.44 µg/mL); in [11] (MRSA, read-out: Minimum Inhibitory Concentration S.aureus MRSA), 25 µM. The half-maximal inhibitory concentration (IC50) in data set [2] (SDFQ-based, three independent experiments, read-out: IC50 against E. coli DNA gyrase) is 3.1 ± 0.7 µM; in data set [5] (IC50 against E. coli DNA gyrase) it was 7 µM; in [7], around 50 µM. Further, in [3], the “human topoisomerase 2α-mediated DNA nicks and double-stranded breaks” value was “causes the human topoisomerase 2a-mediated DNA nicks and double-stranded breaks”. Moreover, the “inhibition of E. coli DNA topoisomerase IV” value in [8] was “inhibits”. In addition, the “E. coli DNA gyrase-mediated DNA breaks and nicking” value in data set [9] was “causes the gyrase-mediated DNA double-stranded breaks and single-stranded nicks”. Also, the “inhibition of E. coli DNA gyrase activities” value in [10] (50 µM of compounds) is recorded as “completely inhibited”.
For the molecule `C[n+]1c(-c2ccc(C=NNC(=O)c3ccc(C(=O)NN=Cc4ccc(-c5cn6ccccc6[n+]5C)cc4)cc3)cc2)cn2ccccc21` [Compound 229], in [1] (E. coli strain ATCC25922), the “MIC (µM) Ec” value worked out at 12.5 µM. Besides, the MIC in data set [1] (ATCC25922, read-out: MIC (µM) Ec, E. coli strain ATCC25922) was 6.25 to 12.5 µM; in data set [15], 7.1 µM; in data set [17], 10.1 µM; in data set [6] (ATCC14775, read-out: MIC (µM) Sa), above 200 µM. Besides, the IC50 is above 200 µM in data set [12]; above 200 µM in [16]; 16 µM in [10]; ~2.6 µM and 2.6 µM in data set [19] (Table 10, read-out: IC50 (µM) Mtb gyrase). Further, the “cytotoxicity against the NCI panel of 60 cancer cell lines” value in data set [13] is recorded as “no cytotoxicity”. In addition, the “Mtb gyrase-mediated DNA nicking and double-stranded breaks” value in data set [14] was “significantly enhances the gyrase-mediated DNA nicking and double-stranded breaks”. For the same molecule, the “inhibition of E. coli DNA gyrase activities” value in data set [5] is listed as “inhibits”; in data set [10] (50 µM of compounds), “completely inhibited”; in data set [10] (200 µM of compounds) it was “completely inhibited”. In addition, in data set [18], the survival is listed as 100%. Besides, the “E. coli DNA gyrase-mediated DNA breaks and nicking” value in [9] is given as “enhances the E. coli gyrase-mediated DNA nicking; also recorded: induces DNA nicking”. In addition, in data set [19], the “inhibition of Mtb DNA gyrase activities” value is listed as “potently inhibits”.
In the case of `O=C(O)c1cc(O)c(O)c(OC(=O)c2cc(O)c(O)c(O)c2)c1` [Digallic acid, digallic acid], the MIC was above 200 µM in data set [1] (ATCC25922, read-out: MIC E coli ATCC 25922, Table 9); above 200 µM in [22]; > 64 µg/mL and > 200 µM in data set [4] (ATCC6633, read-out: MIC B. subtilis ATCC 6633); 64 µg/mL and 200 µM in data set [6] (ATCC14775, read-out: MIC S. aureus ATCC 14775); 200 µM in [11] (ATCC33591 / MRSA, read-out: MIC MRSA ATCC 33591); 64 µg/mL in [11] (ATCCBAA44 / MRSA, read-out: MIC S. aureus (MRSA) ATCC BAA44). The “inhibition of E. coli DNA topoisomerase I” value in [20] is recorded as “do not inhibit; also recorded: did not strongly inhibit”. Moreover, the “inhibition of the ATPase activities of bacterial DNA topoisomerase IV” value in data set [21] is on record as “inhibit the ATPase activities”. The half-maximal inhibitory concentration (IC50) in [2] (Table 8, read-out: IC50 Gyrase SDFQ) is 1.9 µM; in data set [23] it was around 4 µM; in data set [24] it was 7.3 µM; in [8] (IC50 Topoisomerase IV Gel-based, Table 8), 8 µM; in data set [8] (IC50 against E. coli DNA topoisomerase IV, relaxation) it was around 8 µM; in [10], 2 µM. For the same molecule, in data set [7] (gallates at 100 µM), the “inhibition of human DNA topoisomerase IIα” value was “do not inhibit; also recorded: did not strongly inhibit”. Also, the “inhibition of the ATPase activities of E. coli DNA gyrase” value in data set [25] (AB-MECA and gallates at 100 µM) is reported as “competitive inhibitor”. Also, the inhibitory constant (Ki) in [25] (ATPase, ATP competitive, read-out: Ki) was 0.347 µM. The “E. coli DNA gyrase-mediated DNA breaks and nicking” value in [9] was “not bacterial DNA gyrase poisons”. For the same molecule, the “inhibition of human DNA topoisomerase I” value in data set [26] was “do not inhibit; also recorded: did not strongly inhibit”.
For the molecule biphenyl gallate, in data set [1], the “MIC E coli ATCC 25922” value is listed as above 200 µM and the “MIC E. coli ATCC 25922” value is listed as 517.29 µg/mL. Further, the “MIC B. subtilis ATCC 6633” value in data set [4] was 16 µg/mL and 50-100 µM. Further, the “MIC S. aureus ATCC 14775” value in data set [6] was 16 µg/mL and 50 µM. For the same molecule, the “MIC E. coli imp” value in [27] (Table 7) stood at 36.43 µg/mL. Besides, in data set [27] (Table 9), the “MIC E. coli imp BAS3023” value is on record as 200 µM. Moreover, in [11], the “MIC MRSA ATCC 33591” value is 50 µM and the “MIC S. aureus (MRSA) ATCC BAA44” value worked out at 16 µg/mL.
